In patent US20210338755A1, “AQUEOUS EXTRACT FROM CELLS OF FITZROYA CUPRESSOIDES (ALERCE) WITH ANTI- AGING AND SKIN REGENERATION PROPERTIES” (RUBISCO BIOTECHNOLOGY, priority 2018, published 2021):

Test system: HaCaT cells
Test: Scratch wound experiment with cell division inhibitor mitomycin C
Assay type: cell-based
Settings: 48 hours; 20 μmol/L mitomycin C before treatment with 0.125% v/v extract
From the text: Evaluation of the effect of mitomycin C in wound healing repair. […] 20 μmol/L of Mitomycin C was applied before each treatment.
The application of mitomycin inhibits division of the HaCaT cells that, together with cell migration, are the two mechanisms involved in wound healing repair.

`CO[C@@]12[C@H](COC(N)=O)C3=C(C(=O)C(C)=C(N)C3=O)N1C[C@@H]1N[C@@H]12` [mitomycin C] was tested, and the “effect on wound closure induced by Alerce cell culture extract” value was “significantly inhibited the wound closure”.
